In ChEMBL document CHEMBL1140526, “Effect of varying the 4''-position of arbekacin derivatives on antibacterial activity against MRSA and Pseudomonas aeruginosa” (2007) one finds MIC, MIC50 and MIC90 data, which are given here for twelve compounds.

Each structure is given as a SMILES string. Converted amounts (≈) assume the structure as drawn. Where only a bound is given, the exact number is not on record here.

Holding throughout (format): functional
Assay [1] has as its system Staphylococcus aureus. The assay is described as follows: Antibacterial activity against Staphylococcus aureus 209P JC-1.
Assay [2] deals with Staphylococcus aureus. The assay is described as follows: Antibacterial activity against methicillin-resistant Staphylococcus aureus MF490.
Assay [3] relates to Staphylococcus aureus. The assay is described as follows: Antibacterial activity against methicillin-resistant Staphylococcus aureus MSC03571.
Assay [4] deals with Escherichia coli. The assay is described as follows: Antibacterial activity against Escherichia coli NIH JC2.
Assay [5] relates to Pseudomonas aeruginosa. Kind of assay: Antibacterial activity against Pseudomonas aeruginosa PA01.
The subject of assay [6] is Pseudomonas aeruginosa. Kind of assay: Antibacterial activity against Pseudomonas aeruginosa N101.
Assay [7] concerns Pseudomonas aeruginosa. The assay is described as follows: Antibacterial activity against Pseudomonas aeruginosa GN315.
Assay [8] relates to Pseudomonas aeruginosa. The assay is described as follows: Antibacterial activity against Pseudomonas aeruginosa isolates.
Assay [9] deals with Staphylococcus aureus. The assay is described as follows: Antibacterial activity against methicillin resistant Staphylococcus aureus isolates.

Usually MIC stands for the least concentration at which growth counts as inhibited. Read a high MIC as weaker potency. Consider `NCC[C@H](O)C(=O)N[C@@H]1C[C@H](N)[C@@H](O[C@H]2O[C@H](CN)CC[C@H]2N)[C@@H](F)[C@H]1O[C@H]1O[C@H](CO)[C@H](O)[C@H](N)[C@H]1O`, for which the MIC came out at 0.06 µg/mL (≈ 0.108 µM) in assay [1]; 4 µg/mL (≈ 7.21 µM) in assay [2]; 2 µg/mL (≈ 3.61 µM) in assay [3]; 1 µg/mL (≈ 1.8 µM) in [4]; 2 µg/mL (≈ 3.61 µM) in [5]; 0.5 µg/mL (≈ 0.902 µM) in assay [6]. This compound also displayed an MIC in assay [7] of 32 µg/mL (≈ 57.7 µM).

`NCC[C@H](O)C(=O)N[C@@H]1C[C@H](N)[C@@H](O[C@H]2O[C@H](CN)CC[C@H]2N)[C@@H](N)[C@H]1O[C@H]1O[C@H](CO)[C@H](O)[C@H](N)[C@H]1O`: the MIC in assay [1] was found to be 0.25 µg/mL (≈ 0.453 µM); in [2] it was 4 µg/mL (≈ 7.25 µM); in assay [3] it was 4 µg/mL (≈ 7.25 µM); in [4], 2 µg/mL (≈ 3.63 µM); in [5] it was 4 µg/mL (≈ 7.25 µM); in assay [6], 1 µg/mL (≈ 1.81 µM). The compound also had a minimal inhibitory concentration (MIC) in assay [7] greater than 64 µg/mL.

For the compound `NCC[C@H](O)C(=O)N[C@@H]1C[C@H](N)[C@@H](O[C@H]2O[C@H](CN)CC[C@H]2N)[C@H](O)[C@H]1O[C@H]1O[C@H](CO)[C@H](O)[C@H](N)[C@H]1O`, the minimum inhibitory concentration (MIC) turned out to be 0.13 µg/mL (≈ 0.235 µM) in [1]; 32 µg/mL (≈ 57.9 µM) in [2]; 16 µg/mL (≈ 29 µM) in assay [3]; 1 µg/mL (≈ 1.81 µM) in [4]; 4 µg/mL (≈ 7.24 µM) in [5]; 0.25 µg/mL (≈ 0.452 µM) in assay [6]. For the same compound, the MIC in assay [7] was 32 µg/mL (≈ 57.9 µM).

With `[N-]=[N+]=N[C@H]1[C@@H](O[C@H]2O[C@H](CO)[C@H](O)[C@H](N)[C@H]2O)[C@H](NC(=O)[C@@H](O)CCN)C[C@H](N)[C@H]1O[C@H]1O[C@H](CN)CC[C@H]1N`, the MIC in [1] came out at 0.25 µg/mL (≈ 0.433 µM); in assay [2], 4 µg/mL (≈ 6.92 µM); in [3] it was 4 µg/mL (≈ 6.92 µM); in assay [4], 1 µg/mL (≈ 1.73 µM); in assay [5] it was 8 µg/mL (≈ 13.8 µM); in assay [6] it was 0.5 µg/mL (≈ 0.866 µM). In addition, the minimal inhibitory concentration (MIC) in assay [7] came out at 128 µg/mL (≈ 222 µM).

With `NCC[C@H](O)C(=O)N[C@@H]1C[C@H](N)[C@@H](O[C@H]2O[C@H](CN)CC[C@H]2N)[C@H](O)[C@H]1O[C@H]1O[C@H](CO)[C@H](N)[C@H](N)[C@H]1O`, the MIC was 4 µg/mL (≈ 7.25 µM) in [1]; greater than 128 µg/mL in assay [2]; greater than 128 µg/mL in assay [3]; 16 µg/mL (≈ 29 µM) in assay [4]; 64 µg/mL (≈ 116 µM) in assay [5]; 8 µg/mL (≈ 14.5 µM) in [6]. The same compound returned an MIC in assay [7] greater than 128 µg/mL.

Take `NCC[C@H](O)C(=O)N[C@@H]1C[C@H](N)[C@@H](O[C@H]2O[C@H](CN)CC[C@H]2N)[C@H](O)[C@H]1O[C@H]1O[C@H](CO)C[C@H](N)[C@H]1O`: the MIC in assay [1] is 0.13 µg/mL (≈ 0.242 µM); in [2] it was greater than 64 µg/mL; in assay [3], 64 µg/mL (≈ 119 µM); in [4], 2 µg/mL (≈ 3.73 µM); in assay [5], 4 µg/mL (≈ 7.45 µM); in [6] it was 0.5 µg/mL (≈ 0.932 µM). In assay [7], this compound displayed an MIC of 32 µg/mL (≈ 59.6 µM).

Usually MIC50 stands for the lowest concentration that inhibits either 50% of growth or 50% of the strains tested, depending on the study. Low readings indicate greater potency, high ones weaker potency. The term MIC90 denotes the lowest concentration that inhibits either 90% of growth or 90% of the strains tested, depending on the study. Turning to `NCC[C@H](O)C(=O)N[C@@H]1C[C@H](N)[C@@H](O[C@H]2O[C@H](CN)CC[C@H]2N)[C@@H](O)[C@H]1O[C@H]1O[C@H](CO)[C@H](O)[C@H](N)[C@H]1O`, the MIC stood at 0.06 µg/mL (≈ 0.109 µM) in assay [1]; 1 µg/mL (≈ 1.81 µM) in assay [2]; 1 µg/mL (≈ 1.81 µM) in assay [3]; 0.5 µg/mL (≈ 0.905 µM) in assay [4]; 1 µg/mL (≈ 1.81 µM) in assay [5]; 0.25 µg/mL (≈ 0.452 µM) in assay [6]. The MIC in [7] was 16 µg/mL (≈ 29 µM). In addition, the MIC50 was determined as 1 µg/mL (≈ 1.81 µM) in assay [8] and 0.25 µg/mL (≈ 0.452 µM) in assay [9]. In addition, the MIC90 in assay [8] is 4 µg/mL (≈ 7.24 µM); in assay [9], 0.25 µg/mL (≈ 0.452 µM).

Regarding `NCC[C@H](O)C(=O)N[C@@H]1C[C@H](N)[C@@H](O[C@H]2O[C@H](CN)CC[C@H]2N)[C@H](O)[C@H]1O[C@H]1O[C@@H](CO)[C@@H](O)[C@H](N)[C@H]1O`, the MIC in assay [1] is 0.06 µg/mL (≈ 0.109 µM); in assay [2] it was 2 µg/mL (≈ 3.62 µM); in assay [3], 2 µg/mL (≈ 3.62 µM); in [4], 1 µg/mL (≈ 1.81 µM); in assay [5], 2 µg/mL (≈ 3.62 µM); in assay [6], 0.25 µg/mL (≈ 0.452 µM). 8 µg/mL (≈ 14.5 µM) was the least that counted as inhibitory in assay [7] (MIC).

Regarding `NCC[C@H](O)C(=O)N[C@@H]1C[C@H](N)[C@@H](O[C@H]2O[C@H](CN)CC[C@H]2N)[C@@H](Cl)[C@H]1O[C@H]1O[C@H](CO)[C@H](O)[C@H](N)[C@H]1O`, the MIC in assay [1] stood at 0.13 µg/mL (≈ 0.228 µM); in [2], 2 µg/mL (≈ 3.5 µM); in assay [3], 2 µg/mL (≈ 3.5 µM); in assay [4] it was 1 µg/mL (≈ 1.75 µM); in assay [5], 4 µg/mL (≈ 7 µM); in assay [6], 0.5 µg/mL (≈ 0.876 µM). The compound also showed an MIC in [7] greater than 32 µg/mL.

With `CNC[C@@H]1CC[C@@H](N)[C@@H](O[C@H]2[C@@H](O)[C@@H](O[C@H]3O[C@H](CO)[C@H](O)[C@H](N)[C@H]3O)[C@H](NC(=O)[C@@H](O)CCN)C[C@@H]2N)O1`, the minimal inhibitory concentration (MIC) came to 0.13 µg/mL (≈ 0.229 µM) in assay [1]; 4 µg/mL (≈ 7.06 µM) in assay [2]; 1 µg/mL (≈ 1.76 µM) in assay [3]; 1 µg/mL (≈ 1.76 µM) in [4]; 2 µg/mL (≈ 3.53 µM) in assay [5]; 0.5 µg/mL (≈ 0.882 µM) in [6]. For the same compound, 4 µg/mL (≈ 7.06 µM) was the least that counted as inhibitory in assay [7] (MIC).

In the case of `[N-]=[N+]=N[C@@H]1[C@H](N)[C@@H](O)[C@@H](O[C@@H]2[C@@H](O)[C@H](O[C@H]3O[C@H](CN)CC[C@H]3N)[C@@H](N)C[C@H]2NC(=O)[C@@H](O)CCN)O[C@@H]1CO`, the MIC was 0.13 µg/mL (≈ 0.225 µM) in assay [1]; greater than 128 µg/mL in [2]; 128 µg/mL (≈ 222 µM) in assay [3]; 2 µg/mL (≈ 3.46 µM) in assay [4]; 16 µg/mL (≈ 27.7 µM) in assay [5]; 0.5 µg/mL (≈ 0.866 µM) in [6]. Moreover, the lowest concentration to inhibit growth in assay [7] (MIC) was 64 µg/mL (≈ 111 µM).

`NCC[C@H](O)C(=O)N[C@@H]1C[C@H](N)[C@@H](O[C@H]2O[C@H](CN)CC[C@H]2N)[C@H](O)[C@H]1O[C@H]1O[C@H](CO)[C@@H](O)[C@H](N)[C@H]1O` [ARBEKACIN]: the minimal inhibitory concentration (MIC) stood at 0.06 µg/mL (≈ 0.109 µM) in assay [1]; 64 µg/mL (≈ 116 µM) in assay [2]; 16 µg/mL (≈ 29 µM) in [3]; 1 µg/mL (≈ 1.81 µM) in assay [4]; 2 µg/mL (≈ 3.62 µM) in [5]; 0.25 µg/mL (≈ 0.452 µM) in assay [6]. Also, in assay [7], 16 µg/mL (≈ 29 µM) was the least that counted as inhibitory (MIC). The MIC50 in [8] worked out at 2 µg/mL (≈ 3.62 µM); in assay [9] it was 0.5 µg/mL (≈ 0.905 µM). In addition, the figures for the MIC90 in assay [8] and in [9] were 16 µg/mL (≈ 29 µM) and 2 µg/mL (≈ 3.62 µM), respectively.
